Reference: patent US20230128114A1, “METHODS AND COMPOSITIONS FOR TREATING OR PREVENTING AN INFLAMMATORY CONDITION” (priority 2020, published 2023)
Where two headings read alike, the source gives them in different places.

Legend:
LPS-induced sepsis [1] = assay: LPS-induced sepsis in mice, intraperitoneal administration: serum immune marker panel (Luminex/ELISA); format: in vivo, C57BL/6 mice
Protocol: (§1) Male C57BL/6 mice weighing 10-20 g were used. Vehicle and active agents (i.e., CBD and hydroxychloroquine) alone or in combination were administered intraperitoneally (IP) (Table 4) or orally (Table 5) at 1 hour before LPS (100 μg/100 μL/mouse) injected intravenously (IV). At 2 hours after LPS injection, blood was collected from all mice by cardiac puncture, sera processed and assayed for biomarkers using either the Th17-plex for IL-1β, IL-2, IL-10, IL-12 (p70), IFN-γ and TNF-α by Luminex, plus IL-6 and D-dimer by ELISA, or the 23-plex for IL-1α, IL-1β, IL-2, IL-3, IL-4, IL-5, IL-6, IL-9, IL-10, IL-12(p40), IL-12(p70), IL-13, IL-17A, Eotaxin, G-CSF, GM-CSF, IFN-γ, KC, MCP-1(MCAF), MIP-1α, MIP-1β, RANTES, and TNF-α by Luminex, plus IL-6 by ELISA. ANOVA followed by Dunnett's test was applied for comparison between vehicle and treatment groups. p<0.05 is considered significant.

LPS-induced sepsis [2] = assay: LPS-induced sepsis in mice, oral administration: serum 23-plex immune marker panel; format: in vivo, C57BL/6 mice
Protocol: as §1

[3] = system: collagen-induced arthritis; assay: Collagen-induced arthritis; format: in vivo, Lewis rats; set-up: key to Clinical score Day 24, relative reduction / Pannus score, relative reduction / Total histology score, relative reduction: fractional reduction vs vehicle control, sham-baseline subtracted
Protocol: Female Lewis rats were challenged with porcine type-II collagen with Freund's adjuvant on Day 1 (0.2 mg/0.2 mL/rat) by subcutaneous injection at the base of the tail to induce arthritis. A booster injection at 0.1 mg/0.1 mL/rat) was administered on Day 7. On Day 16, rats were allocated into groups of six based on hind paw volume, with animals allocated into groups to provide a similar distribution of hind paw volumes.
Vehicle and active agents (i.e., CBD and hydroxychloroquine) alone or in combination were administered intraperitoneally (IP) once a day starting from Day 17 to Day 30, i.e., for a total of 14 consecutive days.
Disease was assessed by measuring hind paw volume with plethysmometer and using a qualitative severity score system as outlined in Table 32 on Day 1, 7, 10, 14, 16, 18, 20, 22, 24, 26, 28 and 30.
Post-termination on Day 30, blood was collected from all rats and analysed for levels of the inflammatory cytokines IL-1β, IL-6 and TNF-α by ELISA. Both hind paws were harvested, weighed and formalin-fixed for histopathology. Tissue was assessed to evaluate cartilage and bone destruction by pannus formation and mononuclear cell infiltration in synovial tissues according to the scoring matrices set out in Tables 33 and 34. A total histology score, being the sum of the pannus formation and mononuclear cell infiltration score, was also calculated.
For synergy analysis, data were baseline subtracted using sham treated […] (i.e., no collagen injection), before normalising the values relative to vehicle control. Synergy was calculated using the statistical methods described elsewhere herein.

[4] = system: human peripheral blood mononuclear cells (PBMCs) stimulated with bacterial lipopolysaccharide (LPS); assay: Cytokine release from LPS-stimulated human PBMCs (checkerboard, Luminex), Bliss synergy; format: cell-based; details: PBMC
Protocol: The anti-inflammatory activity the combination of CBD and hydroxychloroquine was assessed by determining cytokine release from human peripheral blood mononuclear cells (PBMCs) stimulated with bacterial lipopolysaccharide (LPS) using a Luminex based assay. A 96-well microtitre plate-based checkerboard assay with seven concentrations (including the no drug control) of CBD and hydroxychloroquine were assessed in combination was used to determine the drug-drug interaction. Briefly, frozen PMBCs from two independent donors were thawed, diluted in culture medium, seeded into 96-well microtitre plates and incubated at 37° C., 5% CO2 for 1 hour prior to the addition of test compounds. After the addition of the test compounds the cells were returned to the incubator for 1 hour, after which LPS was added to the wells. Plates were incubated at 37° C., 5% CO2 for 24 hours. After 24 hours, cell culture supernatants were removed and analysed for cytokine levels using Luminex methodology according to manufacturers' instructions. All values had the vehicle background subtracted prior to further analysis. Three plates were set up in parallel using the PBMCs from the same donor. Inhibition of cytokine release was determined relative to the no treatment control (i.e., that was stimulated with LPS) and averaged across the three replicates. A cytotoxicity assay using AlmarBlue with the identical plate set up was performed in parallel.
Drug synergy was determined using the Bliss Independence method where the predicted effect of the drug combination is calculated using the equation: […]
Synergy values for each combination of drug concentrations were calculated using the Excess Over Bliss method (the difference between the observed and predicted inhibition) described by, e.g., Liu et al. (2018, Statistics in Biopharmaceutical Research, 10: 112-122, where a value greater than 0 is indicative of synergy and the higher the value the stronger the synergy.

[5] = hydroxychloroquine 1, 5, 10, 25, 50 and 100 mg/kg IP
[6] = hydroxychloroquine 50 and 100 mg/kg IP
[7] = hydroxychloroquine 20 mg/kg PO alone
[8] = CBD 1 mg/kg, HCQ 2.5 mg/kg, alone or combined, observed
[9] = CBD 1 mg/kg, HCQ 2.5 mg/kg, alone or combined, serum
[10] = HCQ 25 mg/kg alone vs CBD 1 mg/kg + HCQ 2.5 mg/kg
[11] = HCQ 25 mg/kg alone vs CBD 1 mg/kg + HCQ 2.5 mg/kg, serum

`CCN(CCO)CCCC(C)Nc1ccnc2cc(Cl)ccc12` (stereo not drawn) [HCQ] was tested, and the “D-dimer level vs vehicle group” value (LPS-induced sepsis [1]; [5]) was “dose-dependent increase”, the “IL-10 level vs vehicle group” value (LPS-induced sepsis [1]; [5]) was “significant (p<0.05) increase” and the “IFN-γ level vs vehicle group” value (LPS-induced sepsis [1]; [6]) was “moderate decrease”. The “IL-1β level vs vehicle group” value (LPS-induced sepsis [1]; [6]) was “significant (p<0.05) decreases”, the “IL-2 level vs vehicle group” value (LPS-induced sepsis [1]; [6]) was “significant (p<0.05) decreases” and the “IL-12(p70) level vs vehicle group” value (LPS-induced sepsis [1]; [6]) was “moderate decrease”. For the same compound, the “TNF-α level vs vehicle group” value (LPS-induced sepsis [1]; [6]) was “moderate decrease”, the “Effect on biomarker levels” value (LPS-induced sepsis [2]; hydroxychloroquine 2 mg/kg PO alone) was “little or no effect” and the “LPS-induced IL-1α release vs vehicle group” value (LPS-induced sepsis [2]; [7]) was “moderate suppression”. For the same compound, the “LPS-induced IL-1β release vs vehicle group” value (LPS-induced sepsis [2]; [7]) was “moderate suppression”, the “LPS-induced IL-2 release vs vehicle group” value (LPS-induced sepsis [2]; [7]) was “moderate suppression” and the “LPS-induced IL-4 release vs vehicle group” value (LPS-induced sepsis [2]; [7]) was “moderate suppression”. The “LPS-induced IL-5 release vs vehicle group” value (LPS-induced sepsis [2]; [7]) was “moderate suppression”, the “LPS-induced IL-9 release vs vehicle group” value (LPS-induced sepsis [2]; [7]) was “moderate suppression” and the “Clinical score Day 24, relative reduction” value [3, 8] was 0.18. The “Pannus score, relative reduction” value [3, 8] was 0.07, the “Paw volume Day 24, relative reduction” value [3, 8] was 0.04 and the “Total histology score, relative reduction” value [3, 8] was 0.15. For the same compound, the “Relative reduction in serum cytokine levels: IL-1β” value [3, 9] was 0.37, the “Relative reduction in serum cytokine levels: IL-6” value [3, 9] was 0.51 and the “Clinical score Day 24, reduction in disease severity” value [3, 10] was 0.21. For the same compound, the “Clinical score Day 30, reduction in disease severity” value [3, 10] was 0.26, the “Mononuclear cell infiltration, reduction in disease severity” value [3, 10] was 0.24 and the “Pannus score, reduction in disease severity” value [3, 10] was 0.28. For the same compound, the “Paw volume Day 24, reduction in disease severity” value [3, 10] was 0.10, the “Paw volume Day 30, reduction in disease severity” value [3, 10] was 0.20 and the “Total histology score, reduction in disease severity” value [3, 10] was 0.26. For the same compound, the “IL-1B, reduction” value [3, 11] was 0.25, the “IL-6, reduction” value [3, 11] was 0.36 and the inhibition at 0.63 µg/mL ([4]; Donor 1, HCQ 0.63 μg/mL alone, read-out: FIE (fractional inhibitory effect), IL-1α release) was 3%. For the same compound, the inhibition at 0.63 µg/mL ([4]; Donor 1, HCQ 0.63 μg/mL alone, read-out: FIE (fractional inhibitory effect), IL-1β release) was 8%, the inhibition at 0.63 µg/mL ([4]; Donor 1, HCQ 0.63 μg/mL alone, read-out: FIE (fractional inhibitory effect), IL-6 release) was 12% and the inhibition at 0.63 µg/mL ([4]; Donor 1, HCQ 0.63 μg/mL alone, read-out: FIE (fractional inhibitory effect), TNF-α release) was 0%. The inhibition at 1.25 µg/mL ([4]; Donor 1, HCQ 1.25 μg/mL alone, read-out: FIE (fractional inhibitory effect), IL-1α release) was 1%, the inhibition at 1.25 µg/mL ([4]; Donor 1, HCQ 1.25 μg/mL alone, read-out: FIE (fractional inhibitory effect), IL-1β release) was 7% and the inhibition at 1.25 µg/mL ([4]; Donor 1, HCQ 1.25 μg/mL alone, read-out: FIE (fractional inhibitory effect), IL-6 release) was 0%. For the same compound, the inhibition at 1.25 µg/mL ([4]; Donor 1, HCQ 1.25 μg/mL alone, read-out: FIE (fractional inhibitory effect), TNF-α release) was 8%, the inhibition at 2.5 µg/mL ([4]; Donor 1, HCQ 2.50 μg/mL alone, read-out: FIE (fractional inhibitory effect), IL-1α release) was 12% and the inhibition at 2.5 µg/mL ([4]; Donor 1, HCQ 2.50 μg/mL alone, read-out: FIE (fractional inhibitory effect), IL-1β release) was 8%. It also gave an inhibition at 2.5 µg/mL ([4]; Donor 1, HCQ 2.50 μg/mL alone, read-out: FIE (fractional inhibitory effect), IL-6 release) of 10%, an inhibition at 2.5 µg/mL ([4]; Donor 1, HCQ 2.50 μg/mL alone, read-out: FIE (fractional inhibitory effect), MIP-1α release) of 0% and an inhibition at 2.5 µg/mL ([4]; Donor 1, HCQ 2.50 μg/mL alone, read-out: FIE (fractional inhibitory effect), TNF-α release) of 5%. For the same compound, the inhibition at 5 µg/mL ([4]; Donor 1, HCQ 5.00 μg/mL alone, read-out: FIE (fractional inhibitory effect), IL-1α release) was 24%, the inhibition at 5 µg/mL ([4]; Donor 1, HCQ 5.00 μg/mL alone, read-out: FIE (fractional inhibitory effect), IL-1β release) was 17% and the inhibition at 5 µg/mL ([4]; Donor 1, HCQ 5.00 μg/mL alone, read-out: FIE (fractional inhibitory effect), IL-6 release) was 8%. The inhibition at 5 µg/mL ([4]; Donor 1, HCQ 5.00 μg/mL alone, read-out: FIE (fractional inhibitory effect), TNF-α release) was 2%, the inhibition at 10 µg/mL ([4]; Donor 1, HCQ 10.00 μg/mL alone, read-out: FIE (fractional inhibitory effect), IL-1α release) was 50% and the inhibition at 10 µg/mL ([4]; Donor 1, HCQ 10.00 μg/mL alone, read-out: FIE (fractional inhibitory effect), IL-1β release) was 68%. It also gave an inhibition at 10 µg/mL ([4]; Donor 1, HCQ 10.00 μg/mL alone, read-out: FIE (fractional inhibitory effect), IL-6 release) of 0%, an inhibition at 10 µg/mL ([4]; Donor 1, HCQ 10.00 μg/mL alone, read-out: FIE (fractional inhibitory effect), TNF-α release) of 4% and an inhibition at 20 µg/mL ([4]; Donor 1, HCQ 20.00 μg/mL alone, read-out: FIE (fractional inhibitory effect), IL-1α release) of 54%. It also gave an inhibition at 20 µg/mL ([4]; Donor 1, HCQ 20.00 μg/mL alone, read-out: FIE (fractional inhibitory effect), IL-1β release) of 81%, an inhibition at 20 µg/mL ([4]; Donor 1, HCQ 20.00 μg/mL alone, read-out: FIE (fractional inhibitory effect), IL-6 release) of 12% and an inhibition at 20 µg/mL ([4]; Donor 1, HCQ 20.00 μg/mL alone, read-out: FIE (fractional inhibitory effect), MIP-1α release) of 0%. It also gave an inhibition at 20 µg/mL ([4]; Donor 1, HCQ 20.00 μg/mL alone, read-out: FIE (fractional inhibitory effect), TNF-α release) of 30%, an inhibition at 0.63 µg/mL ([4]; Donor 2, HCQ 0.63 μg/mL alone, read-out: FIE (fractional inhibitory effect), IL-1α release) of 7% and an inhibition at 0.63 µg/mL ([4]; Donor 2, HCQ 0.63 μg/mL alone, read-out: FIE (fractional inhibitory effect), IL-1β release) of 6%. The inhibition at 1.25 µg/mL ([4]; Donor 2, HCQ 1.25 μg/mL alone, read-out: FIE (fractional inhibitory effect), IL-1α release) was 11%, the inhibition at 2.5 µg/mL ([4]; Donor 2, HCQ 2.50 μg/mL alone, read-out: FIE (fractional inhibitory effect), IL-1α release) was 19% and the inhibition at 2.5 µg/mL ([4]; Donor 2, HCQ 2.50 μg/mL alone, read-out: FIE (fractional inhibitory effect), IL-1β release) was 7%. It also gave an inhibition at 5 µg/mL ([4]; Donor 2, HCQ 5.00 μg/mL alone, read-out: FIE (fractional inhibitory effect), IL-1α release) of 49%, an inhibition at 5 µg/mL ([4]; Donor 2, HCQ 5.00 μg/mL alone, read-out: FIE (fractional inhibitory effect), TNF-α release) of 2% and an inhibition at 10 µg/mL ([4]; Donor 2, HCQ 10.00 μg/mL alone, read-out: FIE (fractional inhibitory effect), IL-1α release) of 68%. For the same compound, the inhibition at 10 µg/mL ([4]; Donor 2, HCQ 10.00 μg/mL alone, read-out: FIE (fractional inhibitory effect), IL-6 release) was 11%, the inhibition at 10 µg/mL ([4]; Donor 2, HCQ 10.00 μg/mL alone, read-out: FIE (fractional inhibitory effect), MIP-1α release) was 0% and the inhibition at 10 µg/mL ([4]; Donor 2, HCQ 10.00 μg/mL alone, read-out: FIE (fractional inhibitory effect), TNF-α release) was 18%. For the same compound, the inhibition at 20 µg/mL ([4]; Donor 2, HCQ 20.00 μg/mL alone, read-out: FIE (fractional inhibitory effect), IL-1α release) was 63%, the inhibition at 20 µg/mL ([4]; Donor 2, HCQ 20.00 μg/mL alone, read-out: FIE (fractional inhibitory effect), IL-6 release) was 47% and the inhibition at 20 µg/mL ([4]; Donor 2, HCQ 20.00 μg/mL alone, read-out: FIE (fractional inhibitory effect), MIP-1α release) was 0%.
